# In patent US20250243196A1, “CITRON KINASE INHIBITORS” (The Cleveland Clinic Foundation, priority 2021, published 2025):
# Tests used:
# Experiment in all cases: KinaseProfiler panel
# Type in all cases: biochemical
# Settings in all cases: activity remaining
# Rse(h) = Rse(h) (Homo sapiens (Human), UniProt Q06418); design: dose or concentration left out as unconfirmed
# TSSK1(h) = TSSK1(h) (Homo sapiens (Human), UniProt Q9BXA7); design: dose or concentration left out as unconfirmed
# AMPKα1(h) = AMPKα1(h) (Homo sapiens (Human), UniProt Q13131); design: dose or concentration left out as unconfirmed
# TTK(h) = TTK(h) (Homo sapiens (Human), UniProt P33981); design: dose or concentration left out as unconfirmed
# PDK1(h) = PDK1(h) (Homo sapiens (Human), UniProt O15530); design: dose or concentration left out as unconfirmed
# TAO3(h) = TAO3(h) (Homo sapiens (Human), UniProt Q9H2K8); design: dose or concentration left out as unconfirmed
# PKBβ(h) = PKBβ(h) (Homo sapiens (Human), UniProt P31751); design: dose or concentration left out as unconfirmed
# Aurora-C(h) = Aurora-C(h) (Homo sapiens (Human), UniProt Q9UQB9)
# ALK4(h) = ALK4(h) (Homo sapiens (Human), UniProt P36896); design: dose or concentration left out as unconfirmed
# CDK5/p35(h) = CDK5/p35(h) (Homo sapiens (Human), UniProt Q00535); design: dose or concentration left out as unconfirmed
# c-RAF(h) = c-RAF(h) (Homo sapiens (Human), UniProt P04049); design: dose or concentration left out as unconfirmed
# Syk(h) = Syk(h) (Homo sapiens (Human), UniProt P43405); design: dose or concentration left out as unconfirmed
# PKCγ(h) = PKCγ(h) (Homo sapiens (Human), UniProt P05129); design: dose or concentration left out as unconfirmed
# IR(h), activated = IR(h), activated (Homo sapiens (Human), UniProt P06213); design: dose or concentration left out as unconfirmed
# MST3(h) = MST3(h) (Homo sapiens (Human), UniProt Q9Y6E0); design: dose or concentration left out as unconfirmed
# SRPK2(h) = SRPK2(h) (Homo sapiens (Human), UniProt P78362); design: dose or concentration left out as unconfirmed
# MSK2(h) = MSK2(h) (Homo sapiens (Human), UniProt O75676); design: dose or concentration left out as unconfirmed
# EphB2(h) = EphB2(h) (Homo sapiens (Human), UniProt P29323); design: dose or concentration left out as unconfirmed
# Abl(h) = Abl(h) (Homo sapiens (Human), UniProt P00519); design: dose or concentration left out as unconfirmed
# DYRK3(h) = DYRK3(h) (Homo sapiens (Human), UniProt O43781); design: dose or concentration left out as unconfirmed
# SRPK1(h) = SRPK1(h) (Homo sapiens (Human), UniProt Q96SB4); design: dose or concentration left out as unconfirmed
# MAP4K5(h) = MAP4K5(h) (Homo sapiens (Human), UniProt Q9Y4K4); design: dose or concentration left out as unconfirmed
# PKR(h) = PKR(h) (Homo sapiens (Human), UniProt P19525); design: dose or concentration left out as unconfirmed
# STK16(h) = STK16(h) (Homo sapiens (Human), UniProt O75716); design: dose or concentration left out as unconfirmed
# MST1(h) = MST1(h) (Homo sapiens (Human), UniProt Q13043); design: dose or concentration left out as unconfirmed
# TGFBR2(h) = TGFBR2(h) (Homo sapiens (Human), UniProt P37173); design: dose or concentration left out as unconfirmed
# IKKβ(h) = IKKβ(h) (Homo sapiens (Human), UniProt O14920); design: dose or concentration left out as unconfirmed
# NUAK2(h) = NUAK2(h) (Homo sapiens (Human), UniProt Q9H093); design: dose or concentration left out as unconfirmed
# Sequence of AMPKα1(h) (Q13131 whole entry): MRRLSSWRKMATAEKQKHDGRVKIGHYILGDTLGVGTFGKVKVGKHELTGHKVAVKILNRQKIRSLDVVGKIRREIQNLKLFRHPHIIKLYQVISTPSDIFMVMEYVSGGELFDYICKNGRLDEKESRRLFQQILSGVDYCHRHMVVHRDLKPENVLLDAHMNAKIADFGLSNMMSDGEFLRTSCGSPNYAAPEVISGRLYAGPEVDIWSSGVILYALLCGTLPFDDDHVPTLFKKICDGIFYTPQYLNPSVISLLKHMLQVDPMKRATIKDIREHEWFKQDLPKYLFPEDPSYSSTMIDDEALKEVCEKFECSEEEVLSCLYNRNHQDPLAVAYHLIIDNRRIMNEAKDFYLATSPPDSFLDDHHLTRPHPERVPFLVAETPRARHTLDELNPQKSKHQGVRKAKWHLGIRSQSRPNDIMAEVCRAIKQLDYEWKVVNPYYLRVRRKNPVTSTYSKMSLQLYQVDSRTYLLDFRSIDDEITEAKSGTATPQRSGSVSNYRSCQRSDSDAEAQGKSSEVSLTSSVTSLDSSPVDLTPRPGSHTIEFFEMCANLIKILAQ
# Sequence of AMPKα1(h) (Q9Y478 whole entry partner): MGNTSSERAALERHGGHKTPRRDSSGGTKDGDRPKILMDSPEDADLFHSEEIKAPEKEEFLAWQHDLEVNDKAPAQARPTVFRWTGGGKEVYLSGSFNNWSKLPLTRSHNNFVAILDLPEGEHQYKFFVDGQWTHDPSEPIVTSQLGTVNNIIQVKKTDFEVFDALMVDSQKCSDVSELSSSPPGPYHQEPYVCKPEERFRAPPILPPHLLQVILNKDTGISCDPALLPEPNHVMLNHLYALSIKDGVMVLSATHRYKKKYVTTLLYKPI
# Sequence of AMPKα1(h) (P54619 whole entry partner): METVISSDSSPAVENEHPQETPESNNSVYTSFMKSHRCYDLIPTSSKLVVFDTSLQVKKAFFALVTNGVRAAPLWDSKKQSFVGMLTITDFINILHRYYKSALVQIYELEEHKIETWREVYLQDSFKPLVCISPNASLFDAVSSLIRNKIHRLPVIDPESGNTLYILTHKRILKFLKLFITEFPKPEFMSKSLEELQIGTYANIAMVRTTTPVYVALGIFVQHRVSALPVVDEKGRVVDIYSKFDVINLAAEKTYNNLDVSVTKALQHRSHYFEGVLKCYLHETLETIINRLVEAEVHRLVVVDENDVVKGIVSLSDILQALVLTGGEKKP
# Sequence of Rse(h) (Q06418 41-890): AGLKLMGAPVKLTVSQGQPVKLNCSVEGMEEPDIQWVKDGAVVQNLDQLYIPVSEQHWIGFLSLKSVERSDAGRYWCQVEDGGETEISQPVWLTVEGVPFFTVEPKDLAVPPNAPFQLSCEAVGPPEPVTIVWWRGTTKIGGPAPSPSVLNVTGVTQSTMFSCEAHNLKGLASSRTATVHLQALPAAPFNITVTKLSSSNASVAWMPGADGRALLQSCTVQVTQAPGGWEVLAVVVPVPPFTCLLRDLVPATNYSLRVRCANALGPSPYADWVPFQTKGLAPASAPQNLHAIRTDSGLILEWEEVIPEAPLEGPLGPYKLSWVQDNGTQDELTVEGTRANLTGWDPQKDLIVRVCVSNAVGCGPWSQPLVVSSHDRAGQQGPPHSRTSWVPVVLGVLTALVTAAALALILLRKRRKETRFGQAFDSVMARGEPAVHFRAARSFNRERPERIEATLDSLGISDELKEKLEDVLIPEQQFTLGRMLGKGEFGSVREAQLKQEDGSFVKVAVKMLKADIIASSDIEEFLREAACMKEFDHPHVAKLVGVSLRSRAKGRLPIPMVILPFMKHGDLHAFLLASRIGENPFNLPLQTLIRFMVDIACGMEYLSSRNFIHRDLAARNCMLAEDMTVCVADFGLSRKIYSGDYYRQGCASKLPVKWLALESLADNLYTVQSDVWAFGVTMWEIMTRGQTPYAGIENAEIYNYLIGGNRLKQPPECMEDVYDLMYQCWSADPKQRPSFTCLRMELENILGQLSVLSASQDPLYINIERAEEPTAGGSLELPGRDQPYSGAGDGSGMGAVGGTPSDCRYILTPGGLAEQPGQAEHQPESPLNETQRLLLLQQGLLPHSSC
# Sequence of PDK1(h) (O15530 whole entry): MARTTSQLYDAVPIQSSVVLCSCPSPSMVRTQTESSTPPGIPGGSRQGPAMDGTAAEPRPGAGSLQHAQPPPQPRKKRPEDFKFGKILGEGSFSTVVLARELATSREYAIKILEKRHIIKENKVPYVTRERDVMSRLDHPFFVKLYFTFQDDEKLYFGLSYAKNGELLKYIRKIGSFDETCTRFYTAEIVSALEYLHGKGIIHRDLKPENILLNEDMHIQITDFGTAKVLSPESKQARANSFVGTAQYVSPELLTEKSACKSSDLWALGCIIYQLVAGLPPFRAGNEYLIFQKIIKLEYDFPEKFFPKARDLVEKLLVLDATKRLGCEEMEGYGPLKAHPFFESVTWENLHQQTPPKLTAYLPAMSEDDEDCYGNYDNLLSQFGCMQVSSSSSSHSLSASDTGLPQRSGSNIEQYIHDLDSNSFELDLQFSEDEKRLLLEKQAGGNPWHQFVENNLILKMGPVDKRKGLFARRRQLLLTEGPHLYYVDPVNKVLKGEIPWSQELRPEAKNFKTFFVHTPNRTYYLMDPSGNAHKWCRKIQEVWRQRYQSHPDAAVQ
# Sequence of EphB2(h) (P29323 19-1055): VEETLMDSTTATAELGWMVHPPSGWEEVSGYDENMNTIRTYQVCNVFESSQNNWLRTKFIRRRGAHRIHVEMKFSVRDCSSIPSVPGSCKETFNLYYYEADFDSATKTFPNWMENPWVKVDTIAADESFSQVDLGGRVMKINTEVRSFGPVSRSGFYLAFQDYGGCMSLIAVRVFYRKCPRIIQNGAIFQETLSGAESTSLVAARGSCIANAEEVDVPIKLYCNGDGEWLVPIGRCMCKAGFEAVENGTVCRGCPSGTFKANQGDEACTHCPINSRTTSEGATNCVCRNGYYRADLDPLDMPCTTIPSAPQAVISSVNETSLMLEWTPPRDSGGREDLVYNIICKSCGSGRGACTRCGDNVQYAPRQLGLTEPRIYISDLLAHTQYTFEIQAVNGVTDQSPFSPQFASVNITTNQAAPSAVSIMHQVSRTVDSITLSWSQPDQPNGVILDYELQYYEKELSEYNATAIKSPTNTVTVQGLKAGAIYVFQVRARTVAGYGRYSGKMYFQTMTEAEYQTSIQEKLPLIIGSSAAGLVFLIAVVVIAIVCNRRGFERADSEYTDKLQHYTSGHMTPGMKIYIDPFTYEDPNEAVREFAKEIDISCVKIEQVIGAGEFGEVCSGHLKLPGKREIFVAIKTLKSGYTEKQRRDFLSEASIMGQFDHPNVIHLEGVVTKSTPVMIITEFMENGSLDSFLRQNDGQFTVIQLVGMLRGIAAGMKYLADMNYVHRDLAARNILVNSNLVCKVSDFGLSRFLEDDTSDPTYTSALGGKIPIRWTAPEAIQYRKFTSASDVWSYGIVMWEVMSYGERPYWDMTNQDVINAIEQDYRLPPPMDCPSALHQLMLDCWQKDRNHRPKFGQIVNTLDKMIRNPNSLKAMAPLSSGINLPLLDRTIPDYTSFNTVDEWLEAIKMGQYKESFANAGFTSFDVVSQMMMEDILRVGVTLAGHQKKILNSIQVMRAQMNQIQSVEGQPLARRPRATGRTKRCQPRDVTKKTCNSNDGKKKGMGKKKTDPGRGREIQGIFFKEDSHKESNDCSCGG
# Sequence of MAP4K5(h) (Q9Y4K4 whole entry): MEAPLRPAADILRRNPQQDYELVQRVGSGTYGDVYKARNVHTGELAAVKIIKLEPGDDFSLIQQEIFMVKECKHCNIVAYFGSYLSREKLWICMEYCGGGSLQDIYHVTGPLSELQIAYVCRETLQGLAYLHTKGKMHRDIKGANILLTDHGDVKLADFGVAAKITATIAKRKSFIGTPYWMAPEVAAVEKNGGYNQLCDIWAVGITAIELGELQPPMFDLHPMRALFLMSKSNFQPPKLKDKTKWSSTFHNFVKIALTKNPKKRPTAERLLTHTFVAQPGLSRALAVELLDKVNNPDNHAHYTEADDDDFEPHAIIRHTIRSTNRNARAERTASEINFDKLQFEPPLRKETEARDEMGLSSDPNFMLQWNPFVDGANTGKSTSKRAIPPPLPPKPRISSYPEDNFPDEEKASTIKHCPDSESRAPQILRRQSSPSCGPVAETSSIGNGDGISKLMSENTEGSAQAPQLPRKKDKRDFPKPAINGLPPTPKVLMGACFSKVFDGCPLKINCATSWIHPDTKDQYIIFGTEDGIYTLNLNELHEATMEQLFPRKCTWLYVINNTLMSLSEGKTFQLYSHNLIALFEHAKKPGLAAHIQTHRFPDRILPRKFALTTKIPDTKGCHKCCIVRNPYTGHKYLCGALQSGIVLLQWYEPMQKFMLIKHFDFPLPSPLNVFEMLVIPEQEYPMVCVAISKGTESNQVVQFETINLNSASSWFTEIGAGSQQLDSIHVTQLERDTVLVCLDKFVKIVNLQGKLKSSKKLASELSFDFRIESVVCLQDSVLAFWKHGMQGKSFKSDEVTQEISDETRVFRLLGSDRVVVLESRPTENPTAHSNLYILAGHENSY
# Sequence of PKBβ(h) (P31751 whole entry): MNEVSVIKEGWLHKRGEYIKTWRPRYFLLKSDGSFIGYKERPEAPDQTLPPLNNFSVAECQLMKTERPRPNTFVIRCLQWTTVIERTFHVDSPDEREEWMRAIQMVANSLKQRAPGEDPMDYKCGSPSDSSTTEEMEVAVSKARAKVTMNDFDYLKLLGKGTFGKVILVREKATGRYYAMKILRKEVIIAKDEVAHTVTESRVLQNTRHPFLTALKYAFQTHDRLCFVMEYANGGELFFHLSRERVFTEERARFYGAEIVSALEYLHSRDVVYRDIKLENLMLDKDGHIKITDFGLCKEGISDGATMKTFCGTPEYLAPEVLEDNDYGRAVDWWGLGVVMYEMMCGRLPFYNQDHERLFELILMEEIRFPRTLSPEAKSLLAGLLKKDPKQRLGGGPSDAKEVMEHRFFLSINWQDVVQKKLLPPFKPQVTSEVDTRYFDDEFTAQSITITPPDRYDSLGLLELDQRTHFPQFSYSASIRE
structure (smiles),measurement,setting,value
"Cc1cc2c(-c3ccc(NC(=O)[C@H](N)CC(C)(C)C)cc3C)ccnc2[nH]1 [Compound F-90, (2R)-2-Amino-4,4-dimethyl-N-[3-methyl-4-(2-methyl-1H-pyrrolo[2,3-b]pyridin-4-yl)phenyl]pentanamide]",% Activity,Rse(h),129%
same,% Activity,TSSK1(h),116%
same,% Activity,AMPKα1(h),120%
same,% Activity,TTK(h),102%
same,% Activity,PDK1(h),105%
same,% Activity,TAO3(h),100%
same,% Activity,PKBβ(h),109%
same,% Activity,Aurora-C(h),94%
same,% Activity,ALK4(h),94%
same,% Activity,CDK5/p35(h),79%
same,% Activity,c-RAF(h),106%
same,% Activity,Syk(h),66%
same,% Activity,PKCγ(h),97%
same,% Activity,"IR(h), activated",92%
same,% Activity,MST3(h),85%
same,% Activity,SRPK2(h),93%
same,% Activity,MSK2(h),88%
same,% Activity,EphB2(h),96%
same,% Activity,Abl(h),99%
same,% Activity,DYRK3(h),99%
same,% Activity,SRPK1(h),95%
same,% Activity,MAP4K5(h),92%
same,% Activity,PKR(h),85%
same,% Activity,STK16(h),94%
same,% Activity,MST1(h),76%
same,% Activity,TGFBR2(h),96%
same,% Activity,IKKβ(h),99%
same,% Activity,NUAK2(h),72%
